Assay results reported in patent publication US6156700A, “3-(1,2-Benzisothiazol- and isoxazol-5-yl)-2,4(1H,3H)-pyrimidinedione or thione and 3-(1,2-benzisothiazol- and isoxazol-5-yl)-4(3H)-pyrimidinone or thione herbicidal agents” (American Cyanmid Company, priority 1998, dated 2000).
Values joined by “and” are separate entries in the source; they are usually repeats but may differ in a detail not shown here. Identical values can stand only once.

Assays:
ORYSAT = assay: Postemergence herbicidal evaluation; assay type: in vivo, Oryza sativa
IPOHE [1] = assay: Postemergence herbicidal evaluation; assay type: in vivo; conditions: 0.0625-0.0640 kg/ha
GLXMAW [2] = assay: Preemergence herbicidal evaluation; assay type: in vivo; parameters: scale not given here; conditions: 0.1250 kg/ha
IPOHE [3] = assay: Preemergence herbicidal evaluation; assay type: in vivo; conditions: 0.1250 kg/ha
GLXMAW [4] = assay: Postemergence herbicidal evaluation; assay type: in vivo

SMILES: Cn1c(C(F)(F)F)cc(=O)n(-c2ccc3snc(-c4ccccc4)c3c2)c1=O [Compound 4, 1-Methyl-3-(3-phenyl-1,2-benzisothiazol-5-yl)-6-(trifluoromethyl)-2,4(1H,3H)-pyrimidinedione]
- herbicidal effect rating (ORYSAT; 0.0157-0.0160 kg/ha): 2.0
- herbicidal effect rating (ORYSAT; 0.0313-0.0320 kg/ha): 2.0
- herbicidal effect rating (ORYSAT; 0.0625-0.0640 kg/ha): 2.0
- herbicidal effect rating (ORYSAT; 0.1250 kg/ha): 3.0
- herbicidal effect rating (ORYSAT; 0.2500 kg/ha): 3.0
- herbicidal effect rating (ORYSAT; 0.5000 kg/ha): 4.0

SMILES: Cc1nsc2ccc(-n3c(=O)cc(C(F)(F)F)n(C)c3=O)cc12 [Compound 6, 1-Methyl-3-(3-methyl-1,2-benzisothiazol-5-yl)-6-(trifluoromethyl)-2,4(1H,3H)-pyrimidinedione]
- herbicidal effect rating (IPOHE [1]): 9.0 and 5.0
- herbicidal effect rating (ORYSAT; 0.0313-0.0320 kg/ha): 1.5 and 1.0
- herbicidal effect rating (ORYSAT; 0.0625-0.0640 kg/ha): 1.0 and 1.8 and 1.5
- herbicidal effect rating (ORYSAT; 0.1250 kg/ha): 4.5
- herbicidal effect rating (ORYSAT; 0.2500 kg/ha): 5.0
- herbicidal effect rating (ORYSAT; 0.5000 kg/ha): 5.0
- herbicidal effect rating (GLXMAW [2]): 0.0
- herbicidal effect rating (IPOHE [3]): 3.0
- herbicidal effect rating (GLXMAW [4]; 0.0157-0.0160 kg/ha): 5.5 and 3.0
- herbicidal effect rating (GLXMAW [4]; 0.0313-0.0320 kg/ha): 5.5 and 3.8 and 7.0
- herbicidal effect rating (GLXMAW [4]; 0.0625-0.0640 kg/ha): 6.0 and 4.8 and 7.0
- herbicidal effect rating (GLXMAW [4]; 0.1250 kg/ha): 7.0
- herbicidal effect rating (GLXMAW [4]; 0.2500 kg/ha): 7.0
